Assays:
GRP78, GRP94 and PDI = test: Western blot of ER chaperone / ER stress marker expression in VSMCs; type: cell-based, rat
Description: (§1) VSMCs were treated with tunicamycin (1 μg/ml) and either 4μ8c (30 μM) or STF-083010 (60 μM) for 6 h or 24 h. (A) Agarose gel for assessment of XBP1 splicing after 6 h of treatment with tunicamycin and densitometric quantification. (B) Western blot for assessment of ER chaperone expression after 24 h tunicamycin treatment with or without inhibition of IRE1α by 4μ8c. Data is presented as mean±SEM. *, p<0.05 vs. Vehicle; #, p<0.05 vs. Tm.
(§2) VSMCs were cultured in DMEM/F12 containing 1% FBS. Confluent cells were treated with L-ascorbic acid-2-phosphate (100 μg/ml) and either TGF-β1 (5 ng/ml) or Ang II (1 μM). (A) Agarose gel for assessment of TGF-β1-induced XBP1 splicing in VSMCs after 24 h. (B) Picro-Sirius Red assay for measurement of collagen deposition induced by combined TGF-β1 and AA2P treatment after 72 h, and inhibition by 4μ8c and STF-083010. (C) Western blot for assessment of collagen chaperone expression after treatment of TGF-β1 and 4μ8c for 48 h. *, p<0.05. (D) Measurement of Ang II-induced collagen production and inhibition by 4μ8c and STF-083010 after 72 h.
VSMCs were isolated from the aortas of 5-week old WKY rats using the explant method^29. The thoracic aorta was removed from the animal and placed in ice-cold 5× Antibiotics-Antimycotics solution (ThermoFisher). The adventitia was gently removed and the aorta was cut longitudinally. The endothelial layer was removed by gentle scraping with forceps. The aorta was cut into 3 mm^2 squares and placed on a 6 well plate in DMEM/F12 medium containing 10% fetal bovine serum (FBS). Explants were incubated undisturbed in a 5% CO2 incubator at 37° C. for 1 week and then passaged. […]
Cells were lysed in 1× Laemmli buffer and protein content was quantified using the BioRad DC Protein Assay (BioRad, Mississauga, Canada). […]

IRE1α endonuclease = molecular target: T1, IRE1α endonuclease (Rattus norvegicus, UniProt A0A4Y1YQ52); test: XBP1 splicing assay in VSMCs; type: cell-based
T1 construct: endogenous in cells; host or cells: primary aortic vascular smooth muscle cells from 5-week old WKY rats
T1 sequence (A0A4Y1YQ52 21-977): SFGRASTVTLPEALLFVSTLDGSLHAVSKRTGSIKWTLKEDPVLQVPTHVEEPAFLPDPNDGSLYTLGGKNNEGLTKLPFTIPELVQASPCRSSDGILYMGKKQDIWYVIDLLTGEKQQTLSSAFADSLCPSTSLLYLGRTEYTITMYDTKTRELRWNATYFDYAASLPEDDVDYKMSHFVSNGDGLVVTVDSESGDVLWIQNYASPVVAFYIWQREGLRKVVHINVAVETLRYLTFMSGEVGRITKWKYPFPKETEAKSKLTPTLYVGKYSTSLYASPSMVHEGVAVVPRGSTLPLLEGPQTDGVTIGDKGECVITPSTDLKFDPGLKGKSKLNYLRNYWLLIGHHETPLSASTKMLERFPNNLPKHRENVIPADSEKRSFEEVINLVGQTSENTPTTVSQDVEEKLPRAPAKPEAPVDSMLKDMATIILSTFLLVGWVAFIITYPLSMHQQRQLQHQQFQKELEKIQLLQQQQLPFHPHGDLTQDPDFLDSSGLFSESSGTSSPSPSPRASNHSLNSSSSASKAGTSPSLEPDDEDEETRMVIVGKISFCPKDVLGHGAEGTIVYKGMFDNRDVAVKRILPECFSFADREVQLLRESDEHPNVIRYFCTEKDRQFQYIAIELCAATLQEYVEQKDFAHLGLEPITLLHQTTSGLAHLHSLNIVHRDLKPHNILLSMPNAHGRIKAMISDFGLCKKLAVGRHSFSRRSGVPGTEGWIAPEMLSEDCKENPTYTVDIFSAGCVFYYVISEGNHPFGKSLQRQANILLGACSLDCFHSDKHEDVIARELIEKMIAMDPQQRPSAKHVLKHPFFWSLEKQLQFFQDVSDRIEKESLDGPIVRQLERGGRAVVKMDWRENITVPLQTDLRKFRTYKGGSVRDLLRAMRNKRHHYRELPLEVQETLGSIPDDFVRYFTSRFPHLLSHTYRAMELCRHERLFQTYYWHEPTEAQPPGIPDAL
Description: as §1, §2
VSMCs were isolated from the aortas of 5-week old WKY rats using the explant method^29. The thoracic aorta was removed from the animal and placed in ice-cold 5× Antibiotics-Antimycotics solution (ThermoFisher). The adventitia was gently removed and the aorta was cut longitudinally. The endothelial layer was removed by gentle scraping with forceps. […]
Total RNA was extracted from cultured cells and rat tissues using the TRIzol reagent (ThermoFisher) according to manufacturer's instructions. RNA concentration and purity were measured using a Nanodrop ND-1000 spectrophotometer (NanoDrop Technologies, Inc.). […]
Aortic VSMCs were isolated from normotensive WKY rats and used for in vitro experiments. […] To test the ability of these compounds to block the IRE1α endonuclease, XBP1 splicing was measured in VSMCs treated with the ER stress inducer tunicamycin for 6 h with or without pre-treatment by 4μ8c or STF-083010. […]

[1] = tested on: primary rat renal fibroblasts; test: Picro-Sirius Red assay of collagen production in renal fibroblasts; type: cell-based; conditions: AA2P, TGF-β1, 72 h co-treatment, FIG. 3
Description: Rat renal fibroblasts were treated with L-ascorbic acid-2-phosphate, TGF-β1 and 4μ8c for 72 h. Collagen production was measured by a Picro-Sirius Red assay. **, p<0.01.
VSMCs were isolated from the aortas of 5-week old WKY rats using the explant method^29. The thoracic aorta was removed from the animal and placed in ice-cold 5× Antibiotics-Antimycotics solution (ThermoFisher). The adventitia was gently removed and the aorta was cut longitudinally. The endothelial layer was removed by gentle scraping with forceps. The aorta was cut into 3 mm^2 squares and placed on a 6 well plate in DMEM/F12 medium containing 10% fetal bovine serum (FBS). Explants were incubated undisturbed in a 5% CO2 incubator at 37° C. for 1 week and then passaged. Sprague-Dawley renal fibroblasts were purchased (Cell Biologics) and cultured in low glucose DMEM/F12 medium containing 10% FBS, streptomycin (100 μgimp, and penicillin (100 U/ml, Invitrogen, Burlington, ON). Cells between passages 5 and 10 were used for experiments. Cells were cultured in medium containing 1% FBS overnight before treatment.
Collagen synthesis was measured using a Picro-Sirius Red-based assay as previously described^30. Briefly, cells cultured on a 96 well plate were fixed in methanol for 10 minutes at −20° C. […] Absorbance at 540 nm was measured using a Spectramax Plus Microplate Reader (Molecular Devices). […]

Cc1cc(=O)oc2c(C=O)c(O)ccc12 [4μ8c, 7-Hydroxy-4-methyl-2-oxo-2H-chromene-8-carbaldehyde]
elevated expression levels of ER stress markers GRP78, GRP94 and PDI (GRP78, GRP94 and PDI; 24 h tunicamycin treatment, FIG. 1B): reduced
TGF-β1-increased expression of collagen chaperones and ER stress markers GRP78, GRP94 and PDI (GRP78, GRP94 and PDI; TGF-β1 48 h, FIG. 2C): lowered
TGF-β1 induced XBP1 splicing (IRE1α endonuclease; TGF-β1 (5 ng/ml) 24 h, co-treatment, FIG. 2A): blocked
spliced-to-unspliced XBP1 ratio (IRE1α endonuclease; tunicamycin (1 μg/ml) 6 h, 4μ8c 30 μM or STF-083010 60 μM, FIG. 1A): reduced
collagen levels in response to TGF-β1 [1]: reduced

Source: patent publication US20190038597A1, “PREVENTION OF VASCULAR AND CARDIAC FIBROSIS VIA IRE1ALPHA INHIBITION” (McMaster University, priority 2017, published 2019)
